Measurements: the CheMixHub viscosity set

Test: xn = mol fraction of the nth substance listed

CCCCCCCCC(=O)O + CCCCCCCCCCCC(=O)[O-].[Na+]
100 kPa, x2 = 0.2
Conditions	viscosity [mPa·s]
293.15 K	68.61
298.15 K	54.38
303.15 K	43.69
308.15 K	35.55
313.15 K	29.28
318.15 K	24.38
323.15 K	20.51

COc1ccccc1 + CCCCCCCCCCCCCCCC
viscosity [mPa·s], 101.3 kPa
Conditions	x1 = 0.1745	x1 = 0.2566	x1 = 0.3849	x1 = 0.4725	x1 = 0.5679	x1 = 0.6889	x1 = 0.8311	x1 = 0.944
293.15 K	2.794	2.566	2.193	1.975	1.773	1.51	1.279	1.131
303.15 K	2.261	2.079	1.806	1.64	1.478	1.286	1.084	0.97
313.15 K	1.866	1.73	1.518	1.387	1.258	1.092	0.942	0.845
323.15 K	1.571	1.436	1.296	1.192	1.088	0.964	0.836	0.747

CCCCCCCCCCCCCCCCC + CCCCCCCCCCO
100 kPa, x1 = 0.076
Conditions	viscosity [mPa·s]
298.2 K	10.21
308.2 K	6.94
318.2 K	4.87

COc1ccccc1 + CCCCCCCCO
viscosity [mPa·s], 101.33 kPa
Conditions	x1 = 0.1001	x1 = 0.2	x1 = 0.3002	x1 = 0.3998	x1 = 0.5	x1 = 0.6002	x1 = 0.7001	x1 = 0.8002	x1 = 0.9
303.15 K	4.86	3.795	3.074	2.432	1.966	1.576	1.217	1.108	0.968
313.15 K	3.589	2.872	2.342	1.922	1.561	1.28	1.014	0.934	0.831
323.15 K	2.702	2.163	1.863	1.547	1.288	1.054	0.843	0.789	0.725

CC1COC(=O)O1 (stereo not given) + CCCCCCCO
298.15 K, 101 kPa
Conditions	viscosity [mPa·s]
x1 = 0.0321	4.755
x1 = 0.1202	4.481
x1 = 0.1934	4.281
x1 = 0.2735	4.035
x1 = 0.3226	3.909
x1 = 0.4002	3.709
x1 = 0.4717	3.534
x1 = 0.5334	3.39
x1 = 0.6111	3.217
x1 = 0.699	3.031
x1 = 0.7602	2.909
x1 = 0.8226	2.789
x1 = 0.8925	2.662
x1 = 0.9674	2.529

COc1ccccc1 + CCCCCCCO
viscosity [mPa·s]
Conditions	303 K	303.15 K	313 K	313.15 K	323 K	323.15 K
100 kPa, x1 = 0.126	3.393	–	2.351	–	1.972	–
100 kPa, x1 = 0.245	2.343	–	1.746	–	1.46	–
100 kPa, x1 = 0.357	1.759	–	1.349	–	1.173	–
100 kPa, x1 = 0.464	1.364	–	1.124	–	0.9642	–
100 kPa, x1 = 0.565	1.172	–	0.9672	–	0.849	–
100 kPa, x1 = 0.66	1.068	–	0.8719	–	0.7334	–
100 kPa, x1 = 0.752	0.9884	–	0.8171	–	0.684	–
100 kPa, x1 = 0.838	0.9459	–	0.7783	–	0.6326	–
100 kPa, x1 = 0.921	0.9418	–	0.7546	–	0.6041	–
101.33 kPa, x1 = 0.1002	–	3.922	–	2.94	–	2.245
101.33 kPa, x1 = 0.1999	–	3.023	–	2.359	–	1.812
101.33 kPa, x1 = 0.3	–	2.457	–	1.932	–	1.554
101.33 kPa, x1 = 0.4003	–	1.996	–	1.611	–	1.292
101.33 kPa, x1 = 0.5	–	1.701	–	1.373	–	1.161
101.33 kPa, x1 = 0.6	–	1.448	–	1.212	–	0.998
101.33 kPa, x1 = 0.7002	–	1.213	–	1.01	–	0.864
101.33 kPa, x1 = 0.8002	–	1.072	–	0.892	–	0.768
101.33 kPa, x1 = 0.9001	–	0.969	–	0.824	–	0.714

CC1COC(=O)O1 (stereo not given) + CCCCCCO
Conditions	viscosity [mPa·s]
298 K, 101.3 kPa, x1 = 0.0204	4.601
298 K, 101.3 kPa, x1 = 0.0408	4.607
298 K, 101.3 kPa, x1 = 0.0606	4.612
298 K, 101.3 kPa, x1 = 0.0808	4.612
298 K, 101.3 kPa, x1 = 0.1003	4.609
298 K, 101.3 kPa, x1 = 0.2005	4.548
298 K, 101.3 kPa, x1 = 0.3005	4.406
298 K, 101.3 kPa, x1 = 0.4004	4.191
298 K, 101.3 kPa, x1 = 0.5001	3.912
298 K, 101.3 kPa, x1 = 0.6002	3.586
298 K, 101.3 kPa, x1 = 0.7001	3.228
298 K, 101.3 kPa, x1 = 0.8001	2.854
298 K, 101.3 kPa, x1 = 0.9	2.536
298.15 K, 101 kPa, x1 = 0.0254	4.523
298.15 K, 101 kPa, x1 = 0.0901	4.346
298.15 K, 101 kPa, x1 = 0.1722	4.13
298.15 K, 101 kPa, x1 = 0.2303	3.984
298.15 K, 101 kPa, x1 = 0.3087	3.796
298.15 K, 101 kPa, x1 = 0.3846	3.621
298.15 K, 101 kPa, x1 = 0.4521	3.473
298.15 K, 101 kPa, x1 = 0.5332	3.303
298.15 K, 101 kPa, x1 = 0.6124	3.145
298.15 K, 101 kPa, x1 = 0.7005	2.978
298.15 K, 101 kPa, x1 = 0.7883	2.821
298.15 K, 101 kPa, x1 = 0.8455	2.722
298.15 K, 101 kPa, x1 = 0.9112	2.614
298.15 K, 101 kPa, x1 = 0.977	2.509

COc1ccccc1 + CCCCCCO
viscosity [mPa·s], 101.33 kPa
Conditions	x1 = 0.0998	x1 = 0.2	x1 = 0.3002	x1 = 0.4	x1 = 0.5	x1 = 0.6002	x1 = 0.6997	x1 = 0.8001	x1 = 0.9
303.15 K	3.055	2.413	1.969	1.661	1.423	1.27	1.097	1.009	0.927
313.15 K	2.325	1.886	1.569	1.334	1.166	1.049	0.932	0.858	0.798
323.15 K	1.798	1.481	1.248	1.107	0.966	0.878	0.786	0.744	0.699

CC1COC(=O)O1 (stereo not given) + CCCCCO
298.15 K, 101 kPa
Conditions	viscosity [mPa·s]
x1 = 0.0218	3.297
x1 = 0.0861	3.235
x1 = 0.1654	3.161
x1 = 0.2433	3.094
x1 = 0.3101	3.029
x1 = 0.374	2.973
x1 = 0.4207	2.933
x1 = 0.5003	2.865
x1 = 0.5691	2.808
x1 = 0.6326	2.756
x1 = 0.7214	2.685
x1 = 0.8072	2.618
x1 = 0.8655	2.574
x1 = 0.9573	2.505

COc1ccccc1 + CCCCCO
viscosity [mPa·s], 101.33 kPa
Conditions	x1 = 0.1	x1 = 0.1998	x1 = 0.3002	x1 = 0.4001	x1 = 0.5	x1 = 0.6002	x1 = 0.6998	x1 = 0.6999	x1 = 0.8001	x1 = 0.9
303.15 K	2.369	1.911	1.658	1.447	1.26	1.109	–	1.046	0.952	0.914
313.15 K	1.841	1.522	1.326	1.173	1.022	0.929	–	0.862	0.814	0.791
323.15 K	1.403	1.172	1.062	0.953	0.853	0.792	0.745	–	0.708	0.696

C1CCOC1 + CCCCO
101 kPa
Conditions	viscosity [mPa·s]
298.15 K, x1 = 0.0512	2.141
298.15 K, x1 = 0.102	1.844
298.15 K, x1 = 0.1406	1.658
298.15 K, x1 = 0.183	1.504
298.15 K, x1 = 0.3126	1.154
298.15 K, x1 = 0.4002	0.9777
298.15 K, x1 = 0.4443	0.9072
298.15 K, x1 = 0.5	0.8514
298.15 K, x1 = 0.5121	0.8099
298.15 K, x1 = 0.5924	0.7195
298.15 K, x1 = 0.6795	0.6388
298.15 K, x1 = 0.7633	0.5776
298.15 K, x1 = 0.8268	0.5346
298.15 K, x1 = 0.8944	0.5033
298.15 K, x1 = 0.9677	0.4714
313.15 K, x1 = 0.0576	1.529
313.15 K, x1 = 0.1184	1.324
313.15 K, x1 = 0.173	1.166
313.15 K, x1 = 0.2282	1.035
313.15 K, x1 = 0.3549	0.831
313.15 K, x1 = 0.4542	0.7105
313.15 K, x1 = 0.5481	0.6237
313.15 K, x1 = 0.6462	0.5526
313.15 K, x1 = 0.7386	0.4994
313.15 K, x1 = 0.8296	0.4574
313.15 K, x1 = 0.8747	0.439
313.15 K, x1 = 0.9154	0.4256
313.15 K, x1 = 0.9584	0.4129

CC(=O)Oc1ccccc1C(=O)O + CCCCO
viscosity [mPa·s], 101 kPa
Conditions	x1 = 0.0007	x1 = 0.00094	x1 = 0.00118	x1 = 0.00141	x1 = 0.00165	x1 = 0.00189	x1 = 0.00236
293.15 K	2.93	2.931	2.932	2.933	2.934	2.935	2.938
298.15 K	2.57	2.571	2.572	2.573	2.574	2.575	2.576
303.15 K	2.26	2.262	2.262	2.263	2.264	2.265	2.266
308.15 K	2.001	2.002	2.003	2.005	2.005	2.007	2.009
310.15 K	1.9	1.901	1.901	1.902	1.903	1.903	1.905
313.15 K	1.766	1.767	1.767	1.768	1.768	1.769	1.769

CC1COC(=O)O1 (stereo not given) + CCCCO
298 K, 101.3 kPa
Conditions	viscosity [mPa·s]
x1 = 0.0202	2.541
x1 = 0.0403	2.511
x1 = 0.0604	2.482
x1 = 0.08	2.452
x1 = 0.1006	2.423
x1 = 0.2005	2.287
x1 = 0.3006	2.167
x1 = 0.4003	2.074
x1 = 0.5	2.016
x1 = 0.6001	1.999
x1 = 0.7	2.031
x1 = 0.8004	2.12
x1 = 0.9	2.271

CCCCn1cc[n+](C)c1.O=S(=O)([O-])C(F)(F)F + CCCCO
100 kPa
Conditions	viscosity [mPa·s]
298.15 K, x1 = 0.2147	6.17
298.15 K, x1 = 0.2908	8.85
298.15 K, x1 = 0.9078	62.73
303.15 K, x1 = 0.2147	5.08
303.15 K, x1 = 0.2908	6.92
303.15 K, x1 = 0.9078	50.78
308.15 K, x1 = 0.2908	6.03
313.15 K, x1 = 0.4008	9.48
318.15 K, x1 = 0.4008	7.86
323.15 K, x1 = 0.4008	7.16
